These results are taken from US20120207743A1 (priority 2011, published 2012).

This assay deals with DU-145 cells. In kind it is cell-based, Human.

Consider `C=C1[C@@H](C)[C@H]2[C@H](Cc3ccccc3)NC(=O)[C@]23[C@H](OC(C)=O)/C=C/[C@@](C)(O)C(=O)[C@@H](C)C/C=C/[C@H]3[C@@H]1O` [Cytochalasin-D], for which the “Reduction in cell migration compared to cells treated with media alone” value is given as “did not migrate”; the “Relative Wound Density at 24 Hours, Mean” value is 3.3 ± 0.2; the “Relative Wound Density at 24 Hours, Percent Relative to Media” value is recorded as 4%.
